Assay results taken from publication PMC8378823, “X-ray free-electron laser studies reveal correlated motion during isopenicillin N synthase catalysis” (Science Advances, 2021).

Molecular target: T1, isopenicillin N synthase (IPNS) (Aspergillus nidulans, UniProt P05326)
T1 construct: gene ipnA; recombinant wild type (pJB703) from E. coli NM554; S55C form from pCOLD I, N-terminal His6 tag cut with 3C protease, 37,768 Da
T1 sequence (P05326 1-331): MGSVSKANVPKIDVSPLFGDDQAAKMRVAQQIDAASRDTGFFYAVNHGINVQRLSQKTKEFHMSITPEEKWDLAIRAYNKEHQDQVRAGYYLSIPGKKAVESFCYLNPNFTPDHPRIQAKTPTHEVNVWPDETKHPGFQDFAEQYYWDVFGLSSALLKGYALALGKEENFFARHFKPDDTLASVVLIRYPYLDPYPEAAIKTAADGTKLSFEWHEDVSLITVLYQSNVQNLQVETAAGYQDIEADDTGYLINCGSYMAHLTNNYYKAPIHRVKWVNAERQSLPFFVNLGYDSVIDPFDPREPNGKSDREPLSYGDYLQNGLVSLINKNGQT
Assay: SFX and cryo synchrotron crystal structure
Type: binding
Settings: Fe complex; formed in crystallo from ACV by about 30 min O2 exposure; SFX 1.60 Å at room temperature

CC1(C)S[C@@H]2[C@H](NC(=O)CCC[C@H](N)C(=O)O)C(=O)N2[C@H]1C(=O)O [isopenicillin N]
SFX and cryo synchrotron crystal structure: Composite SFX 2mFo-DFc omit map for IPNS:Fe:IPN obtained by ~30-min O2 exposure
